In patent publication US20250296959A1, “B7-H3 TARGETING PEPTIDES AND CONSTRUCTS THEREOF” (Mariana Oncology Inc., priority 2024, published 2025) one finds Kd data, which are given here for 11 compounds.

As a reminder, the Kd is the free concentration of one partner at which half of the binding sites on the other are occupied at equilibrium, for simple one-to-one binding. A high value points to weaker binding.

Structures are written as SMILES. Starred links: 1 amine or outer side, 2 acyl side, 3 side chain; linkers in the order of their positions; H or OH if unused. Positions of bridges follow the written chain, without caps; N, C: chain ends. Non-standard residues stand in square brackets, D forms with d. Residues, ends and D or L forms follow the SMILES beside them. Groups on a side chain read outwards from the residue. *: point of attachment. Ala(piperidin-4-yl) = O=C([C@H](CC1CCN([*:3])CC1)N[*:1])[*:2]; X10 = C[C@@H](c1c[nH]c2ccc(F)cc12)[C@H](N[*:1])C(=O)[*:2]; DOTA = O=C(O)CN1CCN(CC(=O)O)CCN(CC(=O)*)CCN(CC(=O)O)CC1; Trp(5-F) = N[C@@H](Cc1c[nH]c2ccc(F)cc12)C(=O)O; X1 = C[C@@H](c1ccccc1)[C@H](N[*:1])C(=O)[*:2]; 1Nal = N[C@@H](Cc1cccc2ccccc12)C(=O)O; Ala(4-THP) = N[C@@H](CC1CCOCC1)C(=O)O; X3 = O=C([C@H](CCC1CCC1)N[*:1])[*:2]; AEF = NCCOc1ccc(C[C@H](N)C(=O)O)cc1; Val(3-OH) = CC(C)(O)[C@H](N)C(=O)O; 4Pal = N[C@@H](Cc1ccncc1)C(=O)O; aThr = C[C@H](O)[C@H](N)C(=O)O; Chg = N[C@H](C(=O)O)C1CCCCC1; PEG4 = NCCOCCOCCOCCOCCC(=O)O; Tle = CC(C)(C)[C@H](N)C(=O)O; hLeu = CC(C)CC[C@H](N)C(=O)O; Nle = CCCC[C@H](N)C(=O)O; Orn = NCCC[C@H](N)C(=O)O; PEG1 = NCCOCCC(=O)O

In the test the target is T1, human 4lg B7-H3 (Homo sapiens, UniProt Q5ZPR3).
T1 sequence (Q5ZPR3 29-534): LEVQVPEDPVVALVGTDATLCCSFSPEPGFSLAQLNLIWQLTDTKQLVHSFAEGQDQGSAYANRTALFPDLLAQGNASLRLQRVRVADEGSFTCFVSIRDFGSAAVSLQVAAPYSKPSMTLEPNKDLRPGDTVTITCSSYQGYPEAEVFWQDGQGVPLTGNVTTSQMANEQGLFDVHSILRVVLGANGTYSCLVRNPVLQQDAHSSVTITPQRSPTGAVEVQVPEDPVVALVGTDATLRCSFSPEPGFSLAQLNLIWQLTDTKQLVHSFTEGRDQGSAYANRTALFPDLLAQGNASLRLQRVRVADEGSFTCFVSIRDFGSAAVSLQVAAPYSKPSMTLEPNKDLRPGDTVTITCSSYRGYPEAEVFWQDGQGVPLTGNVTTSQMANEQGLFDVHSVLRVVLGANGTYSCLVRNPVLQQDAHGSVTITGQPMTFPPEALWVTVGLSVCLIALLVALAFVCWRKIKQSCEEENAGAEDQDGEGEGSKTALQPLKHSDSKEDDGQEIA
Kind of test: Affinity determination by surface plasmon resonance (SPR) to 4Ig B7-H3. As to conditions: 4Ig B7-H3.

Setting [1] is: SPR KD—37° C., 37° C. flow cell temperature.
The mark [2] stands for this setting: SPR KD—25° C., 25° C. flow cell temperature.

Regarding `CC(=O)N[C@@H](CCC1CCC1)C(=O)N[C@@H](Cc1ccc(O)cc1)C(=O)N[C@H]1CSSC[C@@H](C(=O)N[C@@H](Cc2c[nH]c3ccc(F)cc23)C(=O)N[C@@H](Cc2ccccc2)C(=O)N[C@H](C(=O)N[C@H](CCCCNC(=O)CN2CCN(CC(=O)O)CCN(CC(=O)O)CCN(CC(=O)O)CC2)C(=O)O)C(C)(C)O)NC(=O)[C@H](Cc2ccc(O)cc2)NC(=O)[C@H](C(C)C)NC(=O)[C@H](CC(=O)O)NC(=O)[C@H](CC2CCOCC2)NC(=O)[C@H](CC2CCNCC2)NC(=O)CNC(=O)[C@H](C(C)(C)C)NC1=O` [compound 443, Ac-hCba-Y-C-Tbg-G-PipAla-ThpA-D-V-Y-C-5FW-F-hydroxyVal-dLys(DOTA)-COOH] (Ac-[X3]YC[Tle]G[Ala(piperidin-4-yl)][Ala(4-THP)]DVYC[Trp(5-F)]F[Val(3-OH)][dK](DOTA)-OH; disulfide 3-11), the Kd under setting [1] was < 1 nM.
In the case of `CC(C)CC[C@H](NC(=O)CCOCCNC(=O)[C@H](CCC(=O)O)NC(=O)CN1CCN(CC(=O)O)CCN(CC(=O)O)CCN(CC(=O)O)CC1)C(=O)N[C@@H](Cc1ccc(O)cc1)C(=O)N[C@H]1CSSC[C@@H](C(=O)N[C@@H](Cc2c[nH]c3ccc(F)cc23)C(=O)N[C@@H](Cc2ccccc2)C(=O)N[C@H](C(N)=O)C(C)(C)O)NC(=O)[C@H](Cc2ccc(O)cc2)NC(=O)[C@H](C(C)C)NC(=O)[C@H](CC(=O)O)NC(=O)[C@H](CC2CCOCC2)NC(=O)[C@H](CCCCN)NC(=O)CNC(=O)[C@H](C(C)(C)C)NC1=O` [compound 394, DOTA-Glu-PEG1-hLeu-Y-C-Tbg-G-K-ThpA-D-V-Y-C-5FW-F-hydroxyVal-CONH2] ({DOTA}-E[PEG1][hLeu]YC[Tle]GK[Ala(4-THP)]DVYC[Trp(5-F)]F[Val(3-OH)]-NH2; disulfide 5-13), the Kd under setting [1] lay within 1 to 10 nM.
The compound `CC(=O)N[C@@H](CCC(C)C)C(=O)N[C@@H](Cc1ccc(O)cc1)C(=O)N[C@H]1CSSC[C@@H](C(=O)N[C@@H](Cc2c[nH]c3ccccc23)C(=O)N[C@@H](Cc2ccccc2)C(=O)N[C@H](C(=O)N[C@H](CCCCNC(=O)CN2CCN(CC(=O)O)CCN(CC(=O)O)CCN(CC(=O)O)CC2)C(N)=O)[C@@H](C)O)NC(=O)[C@H](Cc2ccc(O)cc2)NC(=O)[C@H](C(C)C)NC(=O)[C@H](CC(=O)O)NC(=O)[C@H](Cc2ccc(O)cc2)NC(=O)[C@H](CCCCN)NC(=O)CNC(=O)[C@H]([C@H](C)O)NC1=O` [compound 120, Ac-hLeu-Y-C-alloThr-G-K-Y-D-V-Y-C-W-F-Thr-dLys(DOTA)-CONH2] (Ac-[hLeu]YC[aThr]GKYDVYCWFT[dK](DOTA)-NH2; disulfide 3-11) came in with a Kd under setting [2] of 10 to 100 nM.
Under setting [1], `CC(=O)N[C@@H](CCC(C)C)C(=O)N[C@@H](Cc1ccc(O)cc1)C(=O)N[C@H]1CSSC[C@@H](C(=O)N[C@H](C(=O)N[C@@H](Cc2ccccc2)C(=O)N[C@H](C(=O)N[C@H](CCCCNC(=O)CN2CCN(CC(=O)O)CCN(CC(=O)O)CCN(CC(=O)O)CC2)C(=O)O)C(C)(C)O)[C@@H](C)c2c[nH]c3ccc(F)cc23)NC(=O)[C@H](Cc2ccc(O)cc2)NC(=O)[C@H](C(C)C)NC(=O)[C@H](CC(=O)O)NC(=O)[C@H](CC2CCOCC2)NC(=O)[C@H](CC2CCNCC2)NC(=O)CNC(=O)[C@H](C(C)(C)C)NC1=O` [compound 450, Ac-hLeu-Y-C-Tbg-G-PipAla-ThpA-D-V-Y-C-(2S,3S-betaMe-5FW)-F-hydroxyVal-dLys(DOTA)-COOH] (Ac-[hLeu]YC[Tle]G[Ala(piperidin-4-yl)][Ala(4-THP)]DVYC[X10]F[Val(3-OH)][dK](DOTA)-OH; disulfide 3-11) displayed a Kd of 1 to 10 nM.
Under setting [1], `CC(=O)N[C@@H](CCC(C)C)C(=O)N[C@@H](Cc1ccc(O)cc1)C(=O)N[C@H]1CSSC[C@@H](C(=O)N[C@@H](Cc2c[nH]c3ccc(F)cc23)C(=O)N[C@@H](Cc2ccccc2)C(=O)N[C@H](C(=O)N[C@H](CO)C(N)=O)C(C)(C)O)NC(=O)[C@H](Cc2ccc(O)cc2)NC(=O)[C@H](C(C)C)NC(=O)[C@H](CC(=O)O)NC(=O)[C@H](CC2CCOCC2)NC(=O)[C@H](CCCCNC(=O)CN2CCN(CC(=O)O)CCN(CC(=O)O)CCN(CC(=O)O)CC2)NC(=O)CNC(=O)[C@H](C(C)(C)C)NC1=O` [compound 422, Ac-hLeu-Y-C-Tbg-G-Lys(DOTA)-ThpA-D-V-Y-C-5FW-F-hydroxyVal-dSer-CONH2] (Ac-[hLeu]YC[Tle]GK(DOTA)[Ala(4-THP)]DVYC[Trp(5-F)]F[Val(3-OH)][dS]-NH2; disulfide 3-11) returned a Kd of 1 to 10 nM.
For `CC(=O)N[C@@H](CCC(C)C)C(=O)N[C@@H](Cc1ccc(O)cc1)C(=O)N[C@H]1CSSC[C@@H](C(=O)N[C@@H](Cc2c[nH]c3ccc(F)cc23)C(=O)N[C@H](C(=O)N[C@H](C(=O)N[C@@H](CCCCNC(=O)CN2CCN(CC(=O)O)CCN(CC(=O)O)CCN(CC(=O)O)CC2)C(=O)O)C(C)(C)O)[C@@H](C)c2ccccc2)NC(=O)[C@H](Cc2ccc(O)cc2)NC(=O)[C@H](C(C)C)NC(=O)[C@H](CC(=O)O)NC(=O)[C@H](CC2CCOCC2)NC(=O)[C@H](CC2CCNCC2)NC(=O)CNC(=O)[C@H](C(C)(C)C)NC1=O` [compound 509, Ac-hLeu-Y-C-Tbg-G-PipAla-ThpA-D-V-Y-C-5FW-[(2S, 3S)beta-Me-Phe]-hydroxyVal-Lys(DOTA)-COOH] (Ac-[hLeu]YC[Tle]G[Ala(piperidin-4-yl)][Ala(4-THP)]DVYC[Trp(5-F)][X1][Val(3-OH)]K(DOTA)-OH; disulfide 3-11), the Kd under setting [1] is < 1 nM.
For the compound `CC(=O)N[C@@H](CCC(C)C)C(=O)N[C@@H](Cc1ccc(O)cc1)C(=O)N[C@H]1CSSC[C@@H](C(=O)N[C@@H](Cc2c[nH]c3ccccc23)C(=O)N[C@@H](Cc2ccccc2)C(=O)N[C@H](C(=O)N[C@H](CCCCNC(=O)CN2CCN(CC(=O)O)CCN(CC(=O)O)CCN(CC(=O)O)CC2)C(N)=O)[C@@H](C)O)NC(=O)[C@H](Cc2ccc(O)cc2)NC(=O)[C@H](C2CCCCC2)NC(=O)[C@H](CC(=O)O)NC(=O)[C@H](Cc2ccncc2)NC(=O)[C@H](CCCCN)NC(=O)CNC(=O)[C@H](C(C)C)NC1=O` [compound 153, Ac-hLeu-Y-C-V-G-K-4PyA-D-ChG-Y-C-W-F-Thr-dLys(DOTA)-CONH2] (Ac-[hLeu]YCVGK[4Pal]D[Chg]YCWFT[dK](DOTA)-NH2; disulfide 3-11), the Kd under setting [2] was < 1 nM.
Turning to `CCCC[C@H](NC(C)=O)C(=O)N[C@@H](Cc1ccc(O)cc1)C(=O)N[C@H]1CSSC[C@@H](C(=O)N[C@@H](Cc2c[nH]c3ccccc23)C(=O)N[C@@H](Cc2ccccc2)C(=O)N[C@H](C(=O)N[C@H](CCCCNC(=O)CN2CCN(CC(=O)O)CCN(CC(=O)O)CCN(CC(=O)O)CC2)C(=O)O)[C@@H](C)O)NC(=O)[C@H](Cc2ccc(O)cc2)NC(=O)[C@H](C(C)C)NC(=O)[C@H](CC(=O)O)NC(=O)[C@H](Cc2ccc(O)cc2)NC(=O)[C@H](CCCCN)NC(=O)CNC(=O)[C@H](C(C)C)NC1=O` [compound 28, Ac-Nle-Y-C-V-G-K-Y-D-V-Y-C-W-F-Thr-dLys(DOTA)-COOH] (Ac-[Nle]YCVGKYDVYCWFT[dK](DOTA)-OH; disulfide 3-11), the Kd fell in the range of 1 to 10 nM under setting [2] and 1 to 10 nM under setting [1].
Turning to `CC(=O)N[C@@H](CCC(C)C)C(=O)N[C@@H](Cc1ccc(O)cc1)C(=O)N[C@H]1CSSC[C@@H](C(=O)N[C@@H](Cc2c[nH]c3ccc(F)cc23)C(=O)N[C@@H](Cc2ccccc2)C(=O)N[C@H](C(N)=O)[C@@H](C)O)NC(=O)[C@H](Cc2ccc(O)cc2)NC(=O)[C@H](C(C)C)NC(=O)[C@H](CC(=O)O)NC(=O)[C@H](Cc2ccc(OCCNC(=O)CN3CCN(CC(=O)O)CCN(CC(=O)O)CCN(CC(=O)O)CC3)cc2)NC(=O)[C@H](CCCCN)NC(=O)CNC(=O)[C@H](C(C)C)NC1=O` [compound 295, Ac-hLeu-Y-C-V-G-K-AEF(DOTA)-D-V-Y-C-5FW-F-Thr-CONH2] (Ac-[hLeu]YCVGK[AEF](DOTA)DVYC[Trp(5-F)]FT-NH2; disulfide 3-11), the Kd reads like this: under setting [2], < 1 nM; under setting [1], < 1 nM.
Under setting [2], `CCCC[C@H](NC(C)=O)C(=O)N[C@@H](Cc1ccc(O)cc1)C(=O)N[C@H]1CSSC[C@@H](C(=O)N[C@@H](Cc2c[nH]c3ccccc23)C(=O)N[C@@H](Cc2ccccc2)C(=O)N[C@@H](CCCN)C(=O)N[C@H](CCCCNC(=O)CN2CCN(CC(=O)O)CCN(CC(=O)O)CCN(CC(=O)O)CC2)C(N)=O)NC(=O)[C@H](Cc2ccc(O)cc2)NC(=O)[C@H](C(C)C)NC(=O)[C@H](CC(=O)O)NC(=O)[C@H](Cc2ccc(O)cc2)NC(=O)[C@H](CCCCN)NC(=O)CNC(=O)[C@H](C(C)C)NC1=O` [compound 87, Ac-Nle-Y-C-V-G-K-Y-D-V-Y-C-W-F-Orn-dLys(DOTA)-CONH2] (Ac-[Nle]YCVGKYDVYCWF[Orn][dK](DOTA)-NH2; disulfide 3-11) displayed a Kd of 10 to 100 nM.
Consider `CC(=O)N[C@@H](CCC(C)C)C(=O)N[C@@H](Cc1ccc(O)cc1)C(=O)N[C@H]1CSSC[C@@H](C(=O)N[C@@H](Cc2cccc3ccccc23)C(=O)N[C@@H](Cc2ccccc2)C(=O)N[C@H](C(=O)N[C@H](CCC(=O)O)C(N)=O)C(C)(C)O)NC(=O)[C@H](Cc2ccc(O)cc2)NC(=O)[C@H](C(C)C)NC(=O)[C@H](CC(=O)O)NC(=O)[C@H](CC2CCN(C(=O)CCOCCOCCOCCOCCNC(=O)CN3CCN(CC(=O)O)CCN(CC(=O)O)CCN(CC(=O)O)CC3)CC2)NC(=O)[C@H](CC2CCNCC2)NC(=O)CNC(=O)[C@H](C(C)(C)C)NC1=O` [compound 454, Ac-hLeu-Y-C-Tbg-G-PipAla-Pip(PEG4-DOTA)Ala-D-V-Y-C-1Nal-F-hydroxyVal-dGlu-CONH2] (Ac-[hLeu]YC[Tle]G[Ala(piperidin-4-yl)][Ala(piperidin-4-yl)]([PEG4-DOTA])DVYC[1Nal]F[Val(3-OH)][dE]-NH2; disulfide 3-11), for which the Kd under setting [1] is < 1 nM.
